Laboratory results as given in PubChem BioAssay AID1963847 (Molecular Pharmacology Branch, DTP, NCI, 2024).

Tested on: 415267-285-R-J2-PDC complex spheroid viability
Assay: Anticancer human tumor 415267-285-R-J2-PDC patient-derived breast carcinoma cell line growth inhibition [POLQ]
Conditions: for IC50: curve of first compound; for viability, T/C: stronger effect = lower value
In short: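 Complex spheroid viability model combining PDC tumour cells with endothelial (HUVEC) and MSC stromal cells. Novobiocin, ART-558 or RP6685 were tested singly and in combination with standard and investigational anticancer drugs. Each was titrated in half-log steps from near clinical Cmax, or from 10 microM where Cmax was unknown.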

[1] = second compound 0.0316 µM, first compound 0.0316 µM
[2] = second compound 0.0316 µM, first compound 0.1 µM
[3] = second compound 0.0316 µM, first compound 0.316 µM
[4] = second compound 0.0316 µM, first compound 1 µM
[5] = second compound 0.0316 µM, first compound 3.16 µM
[6] = second compound 0.0316 µM, first compound 10 µM
[7] = second compound 0.1 µM, first compound 0.0316 µM
[8] = second compound 0.1 µM, first compound 0.1 µM
[9] = second compound 0.1 µM, first compound 0.316 µM
[10] = second compound 0.1 µM, first compound 1 µM
[11] = second compound 0.1 µM, first compound 3.16 µM
[12] = second compound 0.1 µM, first compound 10 µM
[13] = second compound 0.316 µM, first compound 0.0316 µM
[14] = second compound 0.316 µM, first compound 0.1 µM
[15] = second compound 0.316 µM, first compound 0.316 µM
[16] = second compound 0.316 µM, first compound 1 µM
[17] = second compound 0.316 µM, first compound 3.16 µM
[18] = second compound 0.316 µM, first compound 10 µM
[19] = second compound 1 µM, first compound 0.0316 µM
[20] = second compound 1 µM, first compound 0.1 µM
[21] = second compound 1 µM, first compound 0.316 µM
[22] = second compound 1 µM, first compound 1 µM
[23] = second compound 1 µM, first compound 3.16 µM
[24] = second compound 1 µM, first compound 10 µM
[25] = second compound 3.16 µM, first compound 0.0316 µM
[26] = second compound 3.16 µM, first compound 0.1 µM
[27] = second compound 3.16 µM, first compound 0.316 µM
[28] = second compound 3.16 µM, first compound 1 µM
[29] = second compound 3.16 µM, first compound 3.16 µM
[30] = second compound 3.16 µM, first compound 10 µM
[31] = second compound 10 µM, first compound 0.0316 µM
[32] = second compound 10 µM, first compound 0.1 µM
[33] = second compound 10 µM, first compound 0.316 µM
[34] = second compound 10 µM, first compound 1 µM
[35] = second compound 10 µM, first compound 3.16 µM
[36] = second compound 10 µM, first compound 10 µM
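Further: spheroids exposed to compounds for one week before readout.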
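Wherever viability, T/C is given: luminescence used as stand-in measure of viable cells; 100% = DMSO vehicle control viability.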

CNCc1ccc(-c2[nH]c3cc(F)cc4c3c2CCNC4=O)cc1 + COC1C(OC(N)=O)C(O)C(Oc2ccc3c(O)c(NC(=O)c4ccc(O)c(CC=C(C)C)c4)c(=O)oc3c2C)OC1(C)C
IC50 (second compound 0.0316 µM): > 10 µM
IC50 (second compound 0.1 µM): > 10 µM
IC50 (second compound 0.316 µM): > 10 µM
IC50 (second compound 1 µM): > 10 µM
IC50 (second compound 3.16 µM): > 10 µM
IC50 (second compound 10 µM): > 10 µM
viability, T/C [1]: 114%
viability, T/C [2]: 104%
viability, T/C [3]: 99%
viability, T/C [4]: 113%
viability, T/C [5]: 117%
viability, T/C [6]: 113%
viability, T/C [7]: 97.7%
viability, T/C [8]: 103%
viability, T/C [9]: 117%
viability, T/C [10]: 107%
viability, T/C [11]: 106%
viability, T/C [12]: 106%
viability, T/C [13]: 95.7%
viability, T/C [14]: 109%
viability, T/C [15]: 95.3%
viability, T/C [16]: 114%
viability, T/C [17]: 102%
viability, T/C [18]: 98.8%
viability, T/C [19]: 115%
viability, T/C [20]: 105%
viability, T/C [21]: 97.8%
viability, T/C [22]: 127%
viability, T/C [23]: 102%
viability, T/C [24]: 98.7%
viability, T/C [25]: 95%
viability, T/C [26]: 99.4%
viability, T/C [27]: 120%
viability, T/C [28]: 116%
viability, T/C [29]: 102%
viability, T/C [30]: 104%
viability, T/C [31]: 104%
viability, T/C [32]: 108%
viability, T/C [33]: 104%
viability, T/C [34]: 106%
viability, T/C [35]: 99.9%
viability, T/C [36]: 111%

O=C(Nc1ccc(O)c(NS(=O)(=O)c2ccc(F)cc2)c1)c1ccc(-c2ccccc2)cc1 + Cc1cccc(N(C)C(=O)C2C(O)CCN2c2nc(C)cc(C(F)(F)F)c2C#N)c1
IC50 (second compound 0.0316 µM): > 10 µM
IC50 (second compound 0.1 µM): > 10 µM
IC50 (second compound 0.316 µM): > 10 µM
IC50 (second compound 1 µM): > 10 µM
IC50 (second compound 3.16 µM): > 10 µM
IC50 (second compound 10 µM): > 10 µM
viability, T/C [1]: 112%
viability, T/C [2]: 120%
viability, T/C [3]: 105%
viability, T/C [4]: 106%
viability, T/C [5]: 101%
viability, T/C [6]: 63.4%
viability, T/C [7]: 98.5%
viability, T/C [8]: 101%
viability, T/C [9]: 100%
viability, T/C [10]: 104%
viability, T/C [11]: 100%
viability, T/C [12]: 62.7%
viability, T/C [13]: 109%
viability, T/C [14]: 94.3%
viability, T/C [15]: 93.3%
viability, T/C [16]: 101%
viability, T/C [17]: 102%
viability, T/C [18]: 66.9%
viability, T/C [19]: 115%
viability, T/C [20]: 95.5%
viability, T/C [21]: 109%
viability, T/C [22]: 103%
viability, T/C [23]: 103%
viability, T/C [24]: 63.3%
viability, T/C [25]: 99.2%
viability, T/C [26]: 106%
viability, T/C [27]: 113%
viability, T/C [28]: 99.3%
viability, T/C [29]: 94.2%
viability, T/C [30]: 71.6%
viability, T/C [31]: 98.1%
viability, T/C [32]: 106%
viability, T/C [33]: 114%
viability, T/C [34]: 106%
viability, T/C [35]: 95.3%
viability, T/C [36]: 61.7%

CCc1cc2c(N3CCc4c(cc(Cn5ccnc5)cc4-c4cn(C)nc4C(F)(F)F)C3=O)ccnc2c(OC)n1 + Nc1ccc(C#CCN(C(=O)Cc2ncc(C(F)(F)F)cc2C(F)(F)F)c2ccc(F)cc2)nn1
IC50 (second compound 0.0316 µM): > 10 µM
IC50 (second compound 0.1 µM): > 10 µM
IC50 (second compound 0.316 µM): > 10 µM
IC50 (second compound 1 µM): > 10 µM
IC50 (second compound 3.16 µM): > 10 µM
IC50 (second compound 10 µM): > 10 µM
viability, T/C [1]: 95.8%
viability, T/C [2]: 92.1%
viability, T/C [3]: 78.2%
viability, T/C [4]: 87.2%
viability, T/C [5]: 89.7%
viability, T/C [6]: 70.8%
viability, T/C [7]: 94.3%
viability, T/C [8]: 88.4%
viability, T/C [9]: 79.6%
viability, T/C [10]: 85.3%
viability, T/C [11]: 92.9%
viability, T/C [12]: 68.1%
viability, T/C [13]: 94.2%
viability, T/C [14]: 90.7%
viability, T/C [15]: 75.7%
viability, T/C [16]: 84.1%
viability, T/C [17]: 86.4%
viability, T/C [18]: 71.4%
viability, T/C [19]: 85.9%
viability, T/C [20]: 96%
viability, T/C [21]: 81.8%
viability, T/C [22]: 82.1%
viability, T/C [23]: 87.8%
viability, T/C [24]: 70.7%
viability, T/C [25]: 90.4%
viability, T/C [26]: 87.3%
viability, T/C [27]: 78.8%
viability, T/C [28]: 88.8%
viability, T/C [29]: 78.2%
viability, T/C [30]: 73.3%
viability, T/C [31]: 94.9%
viability, T/C [32]: 83.8%
viability, T/C [33]: 90.4%
viability, T/C [34]: 87.9%
viability, T/C [35]: 77.5%
viability, T/C [36]: 68.2%
